Converted amounts (≈) assume the structure as drawn.
Key:
S. aureus = test: Broth microdilution MIC, European bacteraemia isolates 2010-2012; type: cell-based; settings: S. aureus Methicillin-resistant (1,708)
Description: (§1) A total of 2,904 clinical strains responsible for documented bacteremia among unique hospitalized patients in 38 hospitals in 11 European Union countries. Israel, Russia, Turkey and Ukraine were included in this study (2010-2012). Isolates were submitted to a central monitoring laboratory (JMI Laboratories, North Liberty. Iowa. USA), following previously established protocols. Bacterial species identification was performed by using an automated system (Vitek®2; bioMèrieux, Hazelwood, Mo., USA) or conventional biochemical algorithms, as required.
(§2) Isolates were tested for susceptibility by broth microdilution methods following the Clinical and Laboratory Standards Institute (CLSI; M07-A9, 2012) document. Susceptibility testing was performed in cation-adjusted Mueller-Hinton broth (CA-MHB) using dry-form panels manufactured by Thermo Fisher Scientific, formerly TREK Diagnostics Systems/Sensititre (Cleveland. Ohio, USA). These panels provide results equivalent to the CLSI-approved broth microdilution method supplemented with 0.002% polysorbate-80.
(§3) Quality assurance was performed by concurrent testing of CLSI-recommended (M100-S23, 2013) strains: E. faecalis ATCC 29212 and S. aureus ATCC 29213. Interpretation of comparator MIC results was in accordance with published CLSI (M100-S23) and European Committee on Antimicrobial Susceptibility Testing (EUCAST, 2013) criteria.

E. faecalis [1] = test: Broth microdilution MIC, US isolates 2011-2012, blood vs non-blood; type: cell-based
Description: (§4) 527 E. faecalis, 176 E. faecium, and 790 BHS (335 S. pyogenes and 455 S. agalactiae) clinical, single patient, non-consecutive isolates were collected in 2011-2012 from 46 sites geographically distributed across the United States. The MICs were determined by broth microdilution testing performed in accordance with CLSI M7 and M100 guidelines. From the resulting database, this analysis focused on the activities of ORI, vancomycin (VAN), daptomycin (DAP), and linezolid (LZD) according to specimen source.

S. agalactiae = test: as above; type: cell-based
Description: as §4

S. pyogenes = test: as above; type: cell-based
Description: as §4

E. faecium [2] = test: as above; type: cell-based
Description: as §4

E. faecalis [3] = test: Broth microdilution MIC, European bacteraemia isolates 2010-2012; type: cell-based, Enterococcus faecalis
Description: as §1, §2, §3

[4] = system: Coagulase-negative staphylococci; test: as above; type: cell-based, coagulase-negative staphylococci (CoNS); settings: Table 2, Coagulase-negative staphylococci (646)
Description: as §1, §2, §3

E. faecium [5] = test: as above; type: cell-based, Enterococcus faecium; settings: for % Susceptible, CLSI: CLSI M100-S23 breakpoints; for MIC90: read-out: MIC 90%
Description: as §1, §2, §3

MDR SA = test: Microdilution MIC against MDR SA by specimen source; type: cell-based, S. aureus
Description: 456 clinical, single-patient, non-consecutive, MDR SA isolates from the known specimen sources collected in 2011-2012 were analyzed. MDR was defined as resistant to ≧3 of the following: erythromycin, clindamycin, gentamicin, levofloxacin, and trimethoprim/sulfamethoxazole. 382 were MRSA and 74 were MSSA. MICs were determined by microdilution testing in accordance with CLSI M7 and M100 guidelines. Although other comparator drugs were tested, this analysis focuses on the activities of ORI, VAN, DAP, and LZD.

VRE = test: Susceptibility of the subject's blood culture isolate (treatment history); type: cell-based
Text: 11, 2013; the plan was for at least 8 weeks of antibiotic therapy.

[6] = Table 2, E. faecium Vancomycin-susceptible (257)

MIC50 (S. aureus; Staphylococcus aureus, Table 2, read-out: MIC 50%): 0.25 µg/mL (≈ 0.154 µM)
MIC90 (S. aureus; Staphylococcus aureus, Table 2, read-out: MIC 90%): 0.5 µg/mL (≈ 0.309 µM)
MIC Range (S. aureus; Table 2): 0.12 to 1 µg/mL
MIC90 (E. faecalis [1]; Blood, N 116): 2 µg/mL (≈ 1.23 µM)
MIC90 (E. faecalis [1]; Non-Blood, N 411): 2 µg/mL (≈ 1.23 µM)
MIC90 (S. agalactiae; Blood, N 100): 0.25 µg/mL (≈ 0.154 µM)
MIC90 (S. agalactiae; Non-Blood, N 355): 0.25 µg/mL (≈ 0.154 µM)
MIC90 (S. pyogenes; Blood, N 53): 0.06 µg/mL (≈ 0.037 µM)
MIC90 (S. pyogenes; Non-Blood, N 282): 0.06 µg/mL (≈ 0.037 µM)
MIC90 (E. faecium [2]; Blood, N 84): 4 µg/mL (≈ 2.47 µM)
MIC90 (E. faecium [2]; Non-Blood, N 92): 4 µg/mL (≈ 2.47 µM)
MIC50 (E. faecalis [3]; Enterococcus faecalis, Table 2, E. faecalis (445), read-out: MIC 50%): 1 µg/mL (≈ 0.617 µM)
MIC90 (E. faecalis [3]; Enterococcus faecalis, Table 2, E. faecalis (445), read-out: MIC 90%): 1 µg/mL (≈ 0.617 µM)
MIC Range (E. faecalis [3]; Table 2, E. faecalis (445), includes four VanA-phenotype strains): ≦0.06-4 mg/L
MIC Range [4]: ≦0.06-2 mg/L
MIC50 ([4]; read-out: MIC 50%): 0.25 µg/mL (≈ 0.154 µM)
MIC90 ([4]; read-out: MIC 90%): 0.5 µg/mL (≈ 0.309 µM)
MIC50 (E. faecium [5]; Enterococcus faecium, Table 2, E. faecium Vancomycin-resistant (VanA-phenotype) (153), read-out: MIC 50%): 2 µg/mL (≈ 1.23 µM)
MIC90 (E. faecium [5]; Enterococcus faecium, Table 2, E. faecium Vancomycin-resistant (VanA-phenotype) (153)): 2 µg/mL (≈ 1.23 µM)
MIC90 (E. faecium [5]; Enterococcus faecium, Table 2, E. faecium Vancomycin-susceptible (257)): 2 µg/mL (≈ 1.23 µM)
MIC Range (E. faecium [5]; Table 2, E. faecium Vancomycin-resistant (VanA-phenotype) (153)): 0.25 to 4 µg/mL
MIC 50% (E. faecium [5]; [6]): 2 µg/mL (≈ 1.23 µM)
MIC Range (E. faecium [5]; [6]): 0.12 to 4 µg/mL
MIC50 (MDR SA; Blood, n = 108): 0.5 µg/mL (≈ 0.309 µM)
MIC90 (MDR SA; Blood, n = 108): 0.5 µg/mL (≈ 0.309 µM)
Mode (MIC) (MDR SA; Blood, n = 108): 0.5 µg/mL
Range (MIC) (MDR SA; Blood, n = 108, in µg/mL): 0.25-4
MIC50 (MDR SA; Respiratory, N = 157): 0.5 µg/mL (≈ 0.309 µM)
MIC90 (MDR SA; Respiratory, N = 157): 0.5 µg/mL (≈ 0.309 µM)
Mode (MIC) (MDR SA; Respiratory, N = 157): 0.5 µg/mL
Range (MIC) (MDR SA; Respiratory, N = 157, in µg/mL): 0.12-1
MIC50 (MDR SA; Skin/Wound, N = 191): 0.5 µg/mL (≈ 0.309 µM)
MIC90 (MDR SA; Skin/Wound, N = 191): 0.5 µg/mL (≈ 0.309 µM)
Mode (MIC) (MDR SA; Skin/Wound, N = 191): 0.5 µg/mL
Range (MIC) (MDR SA; Skin/Wound, N = 191): ≦0.06-1
MIC (VRE; 2012 December): 6 µg/mL (≈ 3.7 µM)
MIC (VRE; 2012 July): 4 µg/mL (≈ 2.47 µM)
Structure (SMILES): CCCCCCCCCC(=O)N[C@@H](Cc1c[nH]c2ccccc12)C(=O)N[C@H](CC(N)=O)C(=O)N[C@@H](CC(=O)O)C(=O)N[C@@H]1C(=O)NCC(=O)N[C@@H](CCCN)C(=O)N[C@@H](CC(=O)O)C(=O)N[C@H](C)C(=O)N[C@@H](CC(=O)O)C(=O)NCC(=O)N[C@H](CO)C(=O)N[C@@H]([C@H](C)CC(=O)O)C(=O)N[C@@H](CC(=O)c2ccccc2N)C(=O)O[C@@H]1C [Daptomycin, daptomycin]
% Susceptible, CLSI (S. aureus; CLSI M100-S23 breakpoints): 100.0/— %
% Resistant, EUCAST (S. aureus; EUCAST 2013 breakpoints): 0.0%
% Susceptible, EUCAST (S. aureus; EUCAST 2013 breakpoints): 100.0%
% Susceptible, CLSI (E. faecalis [3]; E. faecalis (445), CLSI M100-S23 breakpoints): 100.0/— %
% susceptible (E. faecalis [3]; E. faecalis strains, criteria not stated): 100%
% Susceptible, CLSI (E. faecium [5]; E. faecium Vancomycin-resistant (VanA-phenotype) (153)): 100.0/— %
% Susceptible, CLSI (E. faecium [5]; E. faecium Vancomycin-susceptible (257)): 100.0/— %
% susceptible (E. faecium [5]; VanA-phenotype E. faecium, criteria not stated): 100%
susceptibility (VRE; 2012 July): borderline susceptible
